From patent US9464055B2, “Quinoline derivatives useful as CB-1 inverse agonists” (JANSSEN PHARMACEUTICA NV, priority 2014, dated 2016) come the findings set out here.

The term pIC50 denotes the IC50 on a negative log10 scale, so that one unit is a factor of ten. Lower therefore signals a large IC50. The pEC50 is the negative decadic logarithm of the EC50, by convention in mol/L.

One data set deals with T1, hCB2-HEK293 membranes (Homo sapiens, UniProt P34972).
T1 construct: expressed in transfected cells; host or cells: HEK293
Briefly: CB-2 membrane binding assay ([3H] CP 55,940 displacement). The following applies: mean where tested more than once.

The next data set addresses hCB1-CHO-K1 membranes (Homo sapiens, UniProt P21554). Nature of the data set: CB-1 membrane binding assay ([3H] CP 55,940 displacement).
A further data set has as its system Male SD rats. Nature of the data set: Open field locomotor activity in rats (CNS activity), stereotypic counts. The format is in vivo, rat. The following applies: 4 hour monitoring, vehicle 3022. An excerpt: (§1) Male Sprague Dawley rats were ordered from Charles River (225-250 gm upon arrival). They were fed standard chow diet (Purina 5001) and housed 2 per cage. Male C57bl/6j mice were ordered from Charles River at 22-25 g and housed 3 per cage. They were fed standard chow (Purina 5001). All animals were housed in a temperature-controlled room with 12-hour light/dark cycle. Animals were given food and water ad libitum, except as noted.
(§2) Test compounds were formulated in 10% PEG400 and 10% solutol. Test compounds were administered by oral gavage (5 ml kg^−1).
Male SD rats were weighed and transferred to the Activity Chambers with access to water. After a 2-hr acclimation period, the rats were dosed with vehicle or test compound (@3 and 10 mg/kg). The Activity Chamber monitoring software program was initiated and automatically recorded rat activity in each chamber for a period of 4 hours. At the end of the 4 hour monitoring period, the software was stopped and the rats were removed from the activity chambers. The rats were anesthetized and blood samples were obtained via retro-orbital puncture to determine plasma concentration of compounds. The rats were immediately euthanized with CO2 and the brains removed, washed with PBS, frozen on dry ice and stored at −80° C. for receptor occupancy (RO) analysis. […]

Data set [1] can be described thus: Chronic DIO mouse: plasma and brain concentrations. The following applies: for Brain concentration (Std Dev): DIO mice, second study. The data set is classed as in vivo. As for the experimental part: Male 14-20-week old diet-induced obese mice were ordered from Taconic. Mice were started on a 60% fat diet (D12492, Research Diets, New Brunswick, N.J.) at 6 weeks of age. Mice were single-housed.
as §2
The test compound was formulated in 10% PEG400 and 10% solutol. DIO mice received vehicle, test compound (@1, 3 and 10 mg/kg) daily for 26 days. At the end of the experiment, the mice were euthanized and blood and tissues were collected.
Compound #44 was tested according to the procedure as described above, with results as listed in Table BIO-4A through Table BIO4-G, below.
In a second study, Compound #44 was tested according to the procedure as described above, with results as listed in Tables BIO-5A through 5G, below.

The target in data set [2] is T2, Human CB2R (Cannabinoid receptor 2) (Homo sapiens, UniProt P34972).
T2 construct: host or cells: HEK-293
Briefly: CB-2 in vitro cAMP (HTRF) functional assay. The following applies: mean where tested more than once. The format is cell-based. The text has this: CB1 and CB2 receptors are Gi-coupled GPCR. Activation of CB1 and CB2 receptors results in a decrease in cAMP production. An inverse agonist of the CB1 or CB2 receptor results in the opposite effect, an increase of cAMP production. The principle of this assay is based on HTRF® technology (Homogeneous Time-Resolved Fluorescence). The method is a competitive immunoassay between native cAMP produced by cells and the cAMP labeled with the fluorophore d2. The tracer binding is quantified by a Mab anti-cAMP labeled with Eu3+ TBP-NHS Cryptate (supplied as part of the assay kit). The specific signal (i.e. energy transfer) is inversely proportional to the concentration of cAMP in the standard or sample.
Human CB1R (Cannabinoid receptor 1) was stably transfected in HEK-293 cells (DiscoveRx, cat: 93-0200C1). Human CB2R (Cannabinoid receptor 2) was stably transfected in HEK-293 cells (DiscoveRx, cat: 93-0201C1). Cell cultures were maintained in media: DMEM (Invitrogen Cat#12430-054) supplemented with 10% HI FBS (Invitrogen Cat#16140-071), 1% L-glutamine (Invitrogen Cat#25030-081), 0.2 mg/ml Hygromycin B (Invitrogen Cat#10687-010), 600 μg/mL G418 (Invitrogen Cat#10131-035), and 1× Penn/Strep (Invitrogen 15140-122). After cell expansion, aliquots were cryo-stored in media containing 5% DMSO (Pierce Cat#20684).
One day prior to experiments media was warmed to 37° C. and the cryo-stored cells were thawed in a 37° C. water bath. The cells were then added to media (10× volume) and the mixture was centrifuged at 1000 RPM for 5 min. The supernate was removed and the cells were re-suspended in media. A sample of the cell suspension was evaluated on a Cedex XS automated cell counter (Innovatis Systems) to determine viable cells/ml. Additional media was added to the cells to achieve a final cell density of 4E5 cells/mL. The cells were then plated into 384 well PDL white solid bottom plates (Greiner, Cat#781945) at 20 μL per well using a Multidrop (Thermo Scientific). Cells were removed from Row P (location of cAMP standards). Two columns of cells were plated into a clear bottom 384 well PDL coated plate (Greiner, Cat#781944) to view confluence the day of the assay. The cell plates were lidded and stored for 15 minutes in a hood, then transferred to an incubator (37° C., 5% CO2, 95% humidity) overnight.
DMSO was added to all wells of 384 well V bottom polystyrene plate (Greiner, Cat#781280) except to columns 1 and 13, rows O and P and wells M13-M23 and N13-N23. Test compounds (60 μL, 10 mM) were added to Column 1 and 13 (A1 through N1 and A13 through L13). Test compounds were serially diluted 1/3 by transferring and mixing 20 μl sample with 40 μL DMSO.
DMSO (40 μL) was added to wells of 384 well V bottom polystyrene plate: O2 through O11, M14 through M23, N14 through N23, and O14 through O23. AM630 (also known as [6-iodo-2-methyl-1-[2-(4-morpholinyl)ethyl]-1H-indol-3-yl](4-methoxyphenyl)-methanone, Cayman Chemical, Cat#10006974) (60 μL, 10 mM) was added to O1; and 1-(2,4-dichlorophenyl)-7-[(4-fluorophenyl)methylene]-4,5,6,7-tetrahydro-N-1-piperidinyl-1H-indazole-3-carboxamide (60 μL, 10 mM) was added to N13. The control was serially diluted 1/3 by transferring and mixing 20 μl sample with 40 μL DMSO. This process resulted 11 doses per control, 10 mM to […].
Cells plated the day prior to the assay in clear bottom plates were viewed on an inverse microscope to ensure confluency in the range of 60-75%. […]

The nature of data set [3]: Mouse Fast PK/BBB (plasma and brain concentration). The format is in vivo, Male C57bl/6j mice. The following applies: 1 hr after oral dosing; 30 mg/kg or 20 mg/kg; N=3.
Description: as §1, §2
Male C57bl/6j mice were dosed with test compounds at 30 mg/kg. Plasma was collected via retro-orbital bleeding at 1 hr and 4 hrs after dosing. […] Wet brain weight was recorded before freezing. Brains were homogenized in saline and sent for analysis for determination of concentration of test compound.
Table BIO-3 below present results for representative compounds of the present invention, tested according to the procedure as described above. Each compound was tested in three animals (N=3) and administered PA at 20 mg/kg

pEC50, pIC50: −log10 of the molar value.

Sequence of hCB1-CHO-K1 membranes (P21554 whole entry): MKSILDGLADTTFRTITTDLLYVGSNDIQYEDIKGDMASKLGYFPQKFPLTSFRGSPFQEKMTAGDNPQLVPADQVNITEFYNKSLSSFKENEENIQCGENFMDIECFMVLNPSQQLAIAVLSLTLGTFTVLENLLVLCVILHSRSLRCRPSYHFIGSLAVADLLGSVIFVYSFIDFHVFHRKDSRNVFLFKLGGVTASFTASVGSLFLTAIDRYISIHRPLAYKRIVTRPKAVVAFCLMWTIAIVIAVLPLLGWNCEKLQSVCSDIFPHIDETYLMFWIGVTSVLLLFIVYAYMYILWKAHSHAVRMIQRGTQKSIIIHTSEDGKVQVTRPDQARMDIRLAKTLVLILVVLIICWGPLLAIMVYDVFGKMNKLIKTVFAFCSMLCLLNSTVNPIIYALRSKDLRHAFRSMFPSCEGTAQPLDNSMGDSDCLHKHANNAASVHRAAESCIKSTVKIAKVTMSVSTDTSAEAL
T1 sequence (P34972 whole entry): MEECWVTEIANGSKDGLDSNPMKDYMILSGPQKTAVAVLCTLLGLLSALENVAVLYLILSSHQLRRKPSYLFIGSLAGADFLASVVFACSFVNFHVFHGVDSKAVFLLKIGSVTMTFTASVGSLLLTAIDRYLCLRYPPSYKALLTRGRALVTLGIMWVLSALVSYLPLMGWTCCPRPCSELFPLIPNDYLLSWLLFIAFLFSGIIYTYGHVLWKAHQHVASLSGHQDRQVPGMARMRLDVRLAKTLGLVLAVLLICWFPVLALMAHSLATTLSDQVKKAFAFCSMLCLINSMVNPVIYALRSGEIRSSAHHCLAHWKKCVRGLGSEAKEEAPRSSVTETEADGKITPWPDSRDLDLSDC
T2 sequence (P34972 whole entry): as above
Description for hCB1-CHO-K1 membranes: Into Greiner V bottom polypropylene plates, hCB1-CHO-K1 membranes (2 μg/well final concentration) in assay buffer (50 mM Tris-HCl pH 7.4, 5 mM MgCl2 and 0.5 mg/ml (0.05%) Ultra fatty acid free BSA) were dispensed. Membranes were purchased from Perkin Elmer. Test compounds were then added to each well and then [^3H] CP 55, 940 (0.4 nM final well concentration) in assay buffer (50 mM Tris-HCl pH 7.4, 5 mM MgCl2 and 0.5 mg/ml (0.05%) Ultra fatty acid free BSA) was added. Samples were mixed and incubated for 90 min at 30° C. in the Greiner V Bottom Polypropylene plate. After incubation, assay reagents were transferred to a blocked 384 well polypropylene filter plates. The binding reaction was stopped by filtration and washed seven times with ice cold rinse buffer. Filter plates were then dried overnight at room temperature. The next day, plate bottoms were sealed with plate tape and 15 μl MicroScint 20 was added to each well. Plates were incubated for 2 h and radioactivity was measured by Topcount.
Total Binding levels were achieved by combining membrane, DMSO, and [^3H]
Non-Specific Binding (NSB) levels were achieved by combining membrane, 10 μM final concentration WIN-55,212 (also known as (R)-(+)-[2,3-Dihydro-5-methyl-3[(4-morpholinyl)methyl]pyrrolo[1,2,3-de]-1,4-benzoxazinyl]-(1-naphthalenyl)methanone mesylate, Tocris Biosciences Cat#1038), and [^3H]
Non-specific binding (NSB=10 μM WIN-55,212+Membrane+[^3H] CP-55,940) was used as the negative control, while the Total Binding (TB=DMSO+Membrane+[^3H] CP-55,940) was used as the positive control.
IC50 data was calculated using raw CPM values. Curves were fitted individually from singlet 11 point dosing curves+1% DMSO Control. IC50 values were fit appropriately and calculated using the following equation:
Vmin, CPM at maximum inhibition; Vo, CPM at zero inhibition; IC50, inhibitor concentration at 50% inhibition; h, Hill coefficient.

Consider `O=c1cc(/C=C/c2ccccc2)c2cc(C(c3ccc(Cl)cc3)c3nccs3)ccc2[nH]1` (centres unmarked) [Compound 25, (E)-6-((4-chlorophenyl)(thiazol-2-yl)methyl)-4-styrylquinolin-2(1H)-one], for which the pIC50 at hCB2-HEK293 membranes was less than 5.30; on hCB1-CHO-K1 membranes it was 7.46.

`Clc1ccc(C(c2ccc3nccc(/C=C/c4ccccc4)c3c2)c2nccs2)cc1` (centres unmarked) [Compound 511]: the negative logarithm of the IC50 (pIC50) on hCB2-HEK293 membranes was less than 5.30; at hCB1-CHO-K1 membranes, 7.26.

For the compound `O=c1cc(NC2CCN(S(=O)(=O)C(F)(F)F)CC2)c2cc(C(c3ccc(Cl)cc3)c3nccs3)ccc2[nH]1` (centres unmarked) [Compound #41, 6-((4-chlorophenyl)(thiazol-2-yl)methyl)-4-((1-((trifluoromethyl)sulfonyl)piperidin-4-yl)amino)quinolin-2(1H)-one], the figures for the pIC50 at hCB2-HEK293 membranes and at hCB1-CHO-K1 membranes were less than 5.30 and 8.36, respectively.

As for `O=c1cc(NC2CCN(S(=O)(=O)C(F)(F)F)CC2)c2cc(C(c3ccc(Cl)cc3)c3ccc(Cl)cc3)ccc2[nH]1` [Compound #44, 6-(bis(4-chlorophenyl)methyl)-4-(1-(trifluoromethylsulfonyl)piperidin-4-ylamino)quinolin-2(1H)-one], the “Stereotypic Counts (MEAN)” value in the data set with Male SD rats (n=8, first #44 row, dose not printed (presumably 3 mg/kg)) is 3250; with Male SD rats (n=8, second #44 row, dose not printed (presumably 10 mg/kg)) it was 2850. Further, the “Plasma Concentration (Std Dev)” value in data set [1] (1 mg/kg daily, 2 Hours Post Dose, Day 16, first study) is 431 (62) ng/mL. In addition, the “Brain concentration (Std Dev)” value in data set [1] (0.3 mg/kg, Day 2, 2 hours post dose) was “BLOQ*”; in data set [1] (0.3 mg/kg, Day 23, 2 hours post dose) it was “BLOQ**”; in data set [1] (1 mg/kg, Day 2, 2 hours post dose), “BLOQ*”; in data set [1] (3 mg/kg, Day 2, 2 hours post dose), “BLOQ*”. Besides, the values for the pIC50 on hCB2-HEK293 membranes and on hCB1-CHO-K1 membranes were 7.28 and 8.92, respectively.

As for `O=c1cc(Nc2ccc(C(F)(F)F)cc2)c2cc(C(c3ccc(Cl)cc3)c3ccc(Cl)cc3)ccc2[nH]1` [Compound #59, 6-(bis(4-chlorophenyl)methyl)-4-((4-(trifluoromethyl)phenyl)amino)quinolin-2(1H)-one], the pEC50 in data set [2] was less than 5.00. The “BRAIN Mean Conc. ± Std. Dev” value in data set [3] is “BLOQ ± NA”.
